Assay results from ChEMBL document CHEMBL1909046, “DrugMatrix in vitro pharmacology data”.

How the values were obtained:
[1] = molecular target: 5-hydroxytryptamine receptor 2B (Homo sapiens, UniProt P41595); assay type: cell membranes, CHO-K1, Membrane; details: cho-k1; further: in other assays of this panel Not Active means under 50% inhibition at 10 µM
[2] = molecular target: Mitogen-activated protein kinase 1 (Homo sapiens, UniProt P28482); experiment: DRUGMATRIX: Protein Serine/Threonine Kinase, ERK2 enzyme inhibition (substrate: Myelin Basic Protein); design: species or system Escherichia coli; details: Not Active = under 50% inhibition at 10 µM
[3] = molecular target: T1, C-C chemokine receptor type 4 (Homo sapiens, UniProt P51679); assay type: cell membranes, Membrane; details: chem-1; further: in other assays of this panel Not Active means under 50% inhibition at 10 µM
T1 sequence (P51679 whole entry): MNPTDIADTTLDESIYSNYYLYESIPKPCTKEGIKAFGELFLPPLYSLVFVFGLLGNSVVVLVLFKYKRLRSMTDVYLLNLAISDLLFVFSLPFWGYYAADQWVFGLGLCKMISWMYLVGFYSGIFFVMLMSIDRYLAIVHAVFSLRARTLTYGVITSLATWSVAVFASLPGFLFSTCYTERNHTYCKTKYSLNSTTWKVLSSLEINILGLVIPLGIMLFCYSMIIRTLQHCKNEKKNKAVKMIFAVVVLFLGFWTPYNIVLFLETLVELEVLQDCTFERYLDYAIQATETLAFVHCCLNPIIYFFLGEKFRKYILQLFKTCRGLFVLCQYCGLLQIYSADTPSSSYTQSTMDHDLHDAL

[4] = DRUGMATRIX: Calcium Channel Type L, Benzothiazepine radioligand binding (ligand: [3H] Diltiazem); assay type: cell membranes, Rattus norvegicus, Wistar, Brain, Membrane; details: Not Active = under 50% inhibition at 10 µM
Histamine H2 receptor = Histamine H2 receptor (Homo sapiens, UniProt P25021); assay type: cell membranes, CHO-K1, Membrane; details: cho-k1; further: in other assays of this panel Not Active means under 50% inhibition at 10 µM
D(1A) dopamine receptor = D(1A) dopamine receptor (Homo sapiens, UniProt P21728); experiment: DRUGMATRIX: Dopamine D1 radioligand binding (ligand: [3H] SCH-23390); assay type: cell membranes, Membrane; details: cho; Not Active = under 50% inhibition at 10 µM
Chain of D(1A) dopamine receptor (P21728 whole entry): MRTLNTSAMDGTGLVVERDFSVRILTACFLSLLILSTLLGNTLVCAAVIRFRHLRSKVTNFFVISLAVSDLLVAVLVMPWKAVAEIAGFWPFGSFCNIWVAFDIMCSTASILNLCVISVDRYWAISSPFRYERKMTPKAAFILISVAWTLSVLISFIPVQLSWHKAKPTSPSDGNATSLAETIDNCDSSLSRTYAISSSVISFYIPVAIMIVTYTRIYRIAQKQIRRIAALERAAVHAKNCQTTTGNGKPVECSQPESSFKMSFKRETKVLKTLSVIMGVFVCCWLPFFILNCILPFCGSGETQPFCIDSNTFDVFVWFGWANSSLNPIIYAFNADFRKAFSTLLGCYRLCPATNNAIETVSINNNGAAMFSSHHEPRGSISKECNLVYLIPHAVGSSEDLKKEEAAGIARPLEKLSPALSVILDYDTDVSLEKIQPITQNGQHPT

Chain of Histamine H2 receptor (P25021 whole entry): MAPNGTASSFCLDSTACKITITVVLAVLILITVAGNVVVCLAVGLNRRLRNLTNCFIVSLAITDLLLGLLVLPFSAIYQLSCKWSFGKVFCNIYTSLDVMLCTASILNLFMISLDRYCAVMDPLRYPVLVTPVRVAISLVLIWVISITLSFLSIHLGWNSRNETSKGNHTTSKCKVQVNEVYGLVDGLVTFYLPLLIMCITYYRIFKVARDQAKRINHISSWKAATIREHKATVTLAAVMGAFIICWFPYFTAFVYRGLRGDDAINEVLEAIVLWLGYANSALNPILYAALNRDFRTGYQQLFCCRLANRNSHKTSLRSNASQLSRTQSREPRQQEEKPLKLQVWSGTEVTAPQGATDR
Chain of Mitogen-activated protein kinase 1 (P28482 whole entry): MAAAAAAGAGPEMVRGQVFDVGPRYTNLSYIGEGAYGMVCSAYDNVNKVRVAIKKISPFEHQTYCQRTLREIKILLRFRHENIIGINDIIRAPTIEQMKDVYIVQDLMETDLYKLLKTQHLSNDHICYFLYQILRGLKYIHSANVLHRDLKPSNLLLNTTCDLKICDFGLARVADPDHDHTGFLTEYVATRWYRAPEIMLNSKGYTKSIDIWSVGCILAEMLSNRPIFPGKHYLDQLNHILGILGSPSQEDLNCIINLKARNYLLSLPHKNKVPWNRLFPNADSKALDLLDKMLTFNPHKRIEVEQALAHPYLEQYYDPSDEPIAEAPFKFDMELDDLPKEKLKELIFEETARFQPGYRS
Chain of 5-hydroxytryptamine receptor 2B (P41595 whole entry): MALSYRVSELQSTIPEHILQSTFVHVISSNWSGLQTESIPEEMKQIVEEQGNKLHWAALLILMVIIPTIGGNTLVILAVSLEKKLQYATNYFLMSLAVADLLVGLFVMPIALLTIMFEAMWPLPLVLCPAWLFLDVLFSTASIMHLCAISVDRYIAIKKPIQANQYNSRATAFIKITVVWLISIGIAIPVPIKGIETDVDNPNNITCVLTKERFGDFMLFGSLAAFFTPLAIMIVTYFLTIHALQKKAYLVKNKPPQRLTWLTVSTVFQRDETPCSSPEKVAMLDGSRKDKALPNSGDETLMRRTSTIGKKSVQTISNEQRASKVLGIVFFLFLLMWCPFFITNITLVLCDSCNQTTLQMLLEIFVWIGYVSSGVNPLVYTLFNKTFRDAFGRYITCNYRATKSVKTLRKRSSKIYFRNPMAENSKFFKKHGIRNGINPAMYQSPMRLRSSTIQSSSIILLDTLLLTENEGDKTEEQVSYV

CC1(C)O[C@@H]2C[C@H]3[C@@H]4C[C@H](F)C5=CC(=O)CC[C@]5(C)[C@H]4[C@@H](O)C[C@]3(C)[C@]2(C(=O)CO)O1 [FLURANDRENOLIDE]
Not Active: IC50 [1] | IC50 [2] | IC50 [3] | IC50 [4] | Ki [4] | IC50 (Histamine H2 receptor) | IC50 (D(1A) dopamine receptor)

Cc1ccc(S(=O)(=O)NC(=O)NN2CC3CCCC3C2)cc1 (stereo unspecified) [GLICLAZIDE]
Not Active: IC50 [1] | IC50 [2] | IC50 [3] | IC50 [4] | Ki [4] | IC50 (Histamine H2 receptor) | IC50 (D(1A) dopamine receptor)

NC(=O)NO [HYDROXYUREA]
Not Active: IC50 [1] | IC50 [2] | IC50 [3] | IC50 [4] | Ki [4] | IC50 (Histamine H2 receptor) | IC50 (D(1A) dopamine receptor)

CC(C)Cc1ccc(C(C)C(=O)O)cc1 (stereo unspecified) [IBUPROFEN]
Not Active: IC50 [1] | IC50 [2] | IC50 [3] | IC50 [4] | Ki [4] | IC50 (Histamine H2 receptor) | IC50 (D(1A) dopamine receptor)

COc1ccc2c(c1)c(CC(=O)O)c(C)n2C(=O)c1ccc(Cl)cc1 [INDOMETHACIN]
Not Active: IC50 [1] | IC50 [2] | IC50 [3] | IC50 [4] | Ki [4] | IC50 (Histamine H2 receptor) | IC50 (D(1A) dopamine receptor)

CCc1c2c(nc3ccc(OC(=O)N4CCC(N5CCCCC5)CC4)cc13)-c1cc3c(c(=O)n1C2)COC(=O)[C@]3(O)CC [IRINOTECAN]
Not Active: IC50 [1] | IC50 [2] | IC50 [3] | IC50 [4] | Ki [4] | IC50 (Histamine H2 receptor) | IC50 (D(1A) dopamine receptor)

CC(C(=O)O)c1cccc(C(=O)c2ccccc2)c1 (stereo unspecified) [KETOPROFEN]
Not Active: IC50 [1] | IC50 [2] | IC50 [3] | IC50 [4] | Ki [4] | IC50 (Histamine H2 receptor) | IC50 (D(1A) dopamine receptor)

Nc1ccn([C@@H]2CS[C@H](CO)O2)c(=O)n1 [LAMIVUDINE]
Not Active: IC50 [1] | IC50 [2] | IC50 [3] | IC50 [4] | Ki [4] | IC50 (Histamine H2 receptor) | IC50 (D(1A) dopamine receptor)

O=S(=O)([O-])CCS.[Na+] [MESNA]
Not Active: IC50 [1] | IC50 [2] | IC50 [3] | IC50 [4] | Ki [4] | IC50 (Histamine H2 receptor) | IC50 (D(1A) dopamine receptor)

C#C[C@]1(O)CC[C@H]2[C@@H]3CCc4cc(OC)ccc4[C@H]3CC[C@@]21C [MESTRANOL]
Not Active: IC50 [1] | IC50 [2] | IC50 [3] | IC50 [4] | Ki [4] | IC50 (Histamine H2 receptor) | IC50 (D(1A) dopamine receptor)

CC(=O)Nc1cccc(O)c1 [METACETAMOL]
Not Active: IC50 [1] | IC50 [2] | IC50 [3] | IC50 [4] | Ki [4] | IC50 (Histamine H2 receptor) | IC50 (D(1A) dopamine receptor)

Cc1ncc([N+](=O)[O-])n1CCO [METRONIDAZOLE]
Not Active: IC50 [1] | IC50 [2] | IC50 [3] | IC50 [4] | Ki [4] | IC50 (Histamine H2 receptor) | IC50 (D(1A) dopamine receptor)

CC(C)(C(=O)c1cccnc1)c1cccnc1 [METYRAPONE]
Not Active: IC50 [1] | IC50 [2] | IC50 [3] | IC50 [4] | Ki [4] | IC50 (Histamine H2 receptor) | IC50 (D(1A) dopamine receptor)
